Source: patent publication US10688082B2, “Aminopyrazine compounds with A2A antagonist properties” (Merck Sharp & Dohme Corp., priority 2015, dated 2020)

Target: T1, human A2a receptor (Homo sapiens, UniProt P29274)
T1 construct: purchased Perkin-Elmer RBHA2AM400UA; host or cells: HEK293 cells (membranes)
Assay: Competition binding assay using Scintillation Proximity technology (A2a activity)
Conditions: membranes from HEK293 cells expressing the human A2a receptor; 0.5 nM tritiated ligand; Cheng-Prusoff
Experimental: Binding affinities of compounds of the invention for the human A2a receptor were determined in a competition binding assay using Scintillation Proximity technology. Thus, […] from HEK293 cells expressing the human A2a receptor were incubated with a compound of the invention at concentrations ranging from 3000 nM to 0.15 nM in a reaction mixture containing also 0.5 nM of a tritiated form of 5-amino-7-[2-phenethyl]-2-(furan-2-yl)-7H-pyrazolo[4,3-e][1,2,4]triazolo[1,5-c]pyrimidine (the tritiated compound) and 100 μg of wheat germ agglutin-coated yttrium silicate SPA beads for one hour at room temperature with agitation. The beads were then allowed to settle to the bottom of the wells for 1 hr, after which the membrane-associated radioactivity was determined by scintillation counting in a TopCount microplate reader. Ki values were determined using the Cheng-Prusoff equation.
HEK293 cells expressing the human, rat, dog or monkey adenosine 2a receptor (Purchased from Perkin-Elmer # RBHA2AM400UA).
The Tritiated compound was prepared according to published methods.
Wheat germ agglutinin-coated yttrium silicate SPA beads (GE Healthcare # RPNQ0023). Dilute to 25 mg/ml in assay buffer.
Assay Buffer was prepared using Dulbecco's calcium and magnesium free phosphate buffered saline+10 mM MgCl2
Adenosine deaminase from calf intestine, 10 mg/2 ml (Roche #10 102 105 001).
A2a antagonist standard (9-chloro-1-(2-furanyl)-[1,2,4]triazolo1,5-c]quinazolin-5-amine from Tocris Bioscience)
Make eight 1:3 serial dilutions in 100% DMSO from a 3 mM compound stock
Transfer 50 nl of compound into a 384-well OptiPlate (Perkin Elmer).
Typically, final concentrations of compound used in the assay ranged from 3000 nM to 0.152 nM.
Dilute a solution of the Tritiated compound to 1.25 nM in assay buffer. This is a 2.5× solution. The final concentration in the assay is 0.5 nM. Calculate the concentration by counting two 5 μl aliquots.
Use 0.25 ug of membrane/well. Dilute membranes to 9.7 μg/ml in assay buffer. Treat with 20 ug/ml adenosine deaminase (ADA) for 15 minutes at room temperature to degrade endogenous adenosine.
Use 100 μg/well wheat germ agglutinin-coated yttrium silicate SPA beads.
Mix ADA-treated membranes and SPA beads together for 30 min prior to assay.
To the Perkin-Elmer Optiplate-384 containing the compound titration add 20 μl of 2.5× solution of the Tritiated compound and 30 μl of the membrane-bead mixture. Incubate for one hour at room temperature with agitation.
Include total binding (assay buffer+1% DMSO) and non-specific binding (CGS15943, 1 μM) wells.
Allow the beads to settle for one hour.
A curve fitting program (i.e., Prism, Activity Base, Chemcart) is used to determine the EC50. The Ki value is calculated using the Cheng-Prusoff equation. K i=EC50/(1+(radioligand concentration/Kd))

T1 sequence (P29274 whole entry): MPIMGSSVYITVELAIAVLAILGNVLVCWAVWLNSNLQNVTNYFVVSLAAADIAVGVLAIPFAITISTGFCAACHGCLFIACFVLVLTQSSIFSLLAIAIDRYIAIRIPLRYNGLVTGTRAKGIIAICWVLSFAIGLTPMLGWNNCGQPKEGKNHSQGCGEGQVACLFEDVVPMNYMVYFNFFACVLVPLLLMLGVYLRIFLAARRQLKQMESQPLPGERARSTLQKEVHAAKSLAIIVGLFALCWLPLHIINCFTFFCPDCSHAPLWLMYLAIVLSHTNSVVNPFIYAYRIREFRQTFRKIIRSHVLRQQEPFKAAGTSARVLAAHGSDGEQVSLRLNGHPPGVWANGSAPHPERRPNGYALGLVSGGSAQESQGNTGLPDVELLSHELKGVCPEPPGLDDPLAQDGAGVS

| SMILES | Ki [nM] |
| --- | --- |
| COc1cccc2c1nc(N)n1nc(C(=O)N3CCNCC3)cc21 [Ex-76, (5-amino-7-methoxypyrazolo[1,5-c]quinazolin-2-yl)(piperazin-1-yl)methanone] | 300 |
| COc1cccc2c1nc(N)n1nc(C(=O)NCc3ccc(F)cc3F)cc21 [Ex-77, 5-amino-N-(2,4-difluorobenzyl)-7-methoxypyrazolo[1,5-c]quinazoline-2-carboxamide] | 2 |
| COc1cccc2c1nc(N)n1nc(C(=O)N3CCN(c4ccc(F)cc4F)CC3)cc21 [Ex-78, (5-amino-7-methoxypyrazolo[1,5-c]quinazolin-2-yl)(4-(2,4-difluorophenyl)piperazin-1-yl)methanone] | 0.3 |
| COc1cccc2c1nc(N)n1nc(C(=O)NCc3ccc(Br)cc3F)cc21 [Ex-79, 5-amino-N-(4-bromo-2-fluorobenzyl)-7-methoxypyrazolo[1,5-c]quinazoline-2-carboxamide] | 1 |
| COc1cccc2c1nc(N)n1nc(C(=O)N(C)Cc3ccccc3)cc21 [Ex-81, 5-amino-N-benzyl-7-methoxy-N-methylpyrazolo[1,5-c]quinazoline-2-carboxamide] | 4 |
| COc1cccc2c1nc(N)n1nc(C(=O)N3CCC4(CCN(C(=O)OC(C)(C)C)C4)CC3)cc21 [Ex-83, tert-butyl 8-(5-amino-7-methoxy-pyrazolo[1,5-c]quinazoline-2-carbonyl)-2,8-diazaspiro[4.5]decane-2-carboxylate] | 80 |
| COc1cccc2c1nc(N)n1nc(C(=O)N3CCC4(CCN(C(=O)OC(C)(C)C)C4)C3)cc21 (centres unmarked) [Ex-85, tert-butyl 7-(5-amino-7-methoxypyrazolo[1,5-c]quinazoline-2-carbonyl)-2,7-diazaspiro[4.4]nonane-2-carboxylate] | 11 |
| COc1cccc2c1nc(N)n1nc(C(=O)N3CCC4(CCN(C(C)=O)C4)C3)cc21 (centres unmarked) [Ex-87, 1-(7-(5-amino-7-methoxypyrazolo[1,5-c]quinazoline-2-carbonyl)-2,7-diazaspiro[4.4]nonan-2-yl)ethan-1-one] | 9 |
| COC(=O)N1CCC2(CCN(C(=O)c3cc4c5cccc(OC)c5nc(N)n4n3)C2)C1 (centres unmarked) [Ex-88, methyl 7-(5-amino-7-methoxypyrazolo[1,5-c]quinazoline-2-carbonyl)-2,7-diazaspiro[4.4]nonane-2-carboxylate] | 7 |
| COc1cccc2c1nc(N)n1nc(-c3nc(Cc4ccccc4)no3)cc21 [Ex-93, 2-(3-benzyl-1,2,4-oxadiazol-5-yl)-7-methoxypyrazolo[1,5-c]quinazolin-5-amine] | 45 |
| Nc1nc2ccccc2c2cc(Cc3cccc4cccnc34)nn12 [Ex-94, 2-(quinolin-8-ylmethyl)pyrazolo[1,5-c]quinazolin-5-amine] | 10 |
| Nc1nc2ccccc2c2cc(Cc3ccccc3CN3CCOCC3)nn12 [Ex-97, 2-(2-(morpholinomethyl)-bcnzyl)pyrazolo[1,5-c]-quinazolin-5-amine] | 51 |
| COc1cccc2c1nc(N)n1nc(-c3nnc(-c4cccc5cccnc45)o3)cc21 [Ex-100, 7-methoxy-2-(5-(quinolin-8-yl)-1,3,4-oxadiazol-2-yl)pyrazolo[1,5-c]quinazolin-5-amine] | 19 |
| COc1cccc2c1nc(N)n1nc(-c3nnc(N4CCOCC4)o3)cc21 [Ex-101, 7-methoxy-2-(5-morpholino-1,3,4-oxadiazol-2-yl)pyrazolo[1,5-c]quinazolin-5-amine] | 39 |
| COc1cccc2c1nc(N)n1nc(-c3nnc(NCc4ccc(F)cc4F)o3)cc21 [Ex-103, 5-(5-amino-7-methoxypyrazolo[1,5-c]quinazolin-2-yl)-N-(2,4-difluorobenzyl)-1,3,4-oxadiazol-2-amine] | 23 |
| Nc1nc2ccc(F)cc2c2cc(Cc3cccc4cccnc34)nn12 [Ex-105, 9-fluoro-2-(quinolin-8-ylmethyl)pyrazolo[1,5-c]quinazolin-5-amine] | 45 |
| Nc1nc2ccc(F)cc2c2cc(Cc3ccccc3N3CCOCC3)nn12 [Ex-106, 9-fluoro-2-(2-morpholinobenzyl)pyrazolo[1,5-c]quinazolin-5-amine] | 65 |
| Nc1nc2c(F)cccc2c2cc(C(=O)N3CCN(c4ccccn4)CC3)nn12 [Ex-110, (5-amino-7-fluoropyrazolo[1,5-c]quinazolin-2-yl)(4-(pyridin-2-yl)piperazin-1-yl)methanone] | 32 |
| Nc1nc2c(F)cccc2c2cc(C(=O)N3CCN(c4ccc(F)cc4F)CC3)nn12 [Ex-111, (5-amino-7-fluoropyrazolo[1,5-c]quinazolin-2-yl)(4-(2,4-difluorophenyl)piperazin-1-yl)methanone] | 94 |

Now from value to molecule:

| Ki [nM] | SMILES |
| --- | --- |
| 20 | COc1cccc2c1nc(N)n1nc(C(=O)N3CCN(C(=O)OC(C)(C)C)CC3)cc21 [Ex-75, tert-butyl 4-(5-amino-7-methoxypyrazolo[1,5-c]quinazoline-2-carbonyl)piperazine-1-carboxylate] |
| 3 | COc1cccc2c1nc(N)n1nc(C(=O)Nc3ccccc3)cc21 [Ex-80, 5-amino-7-methoxy-N-phenylpyrazolo[1,5-c]quinazoline-2-carboxamide] |
| 7 | COc1cccc2c1nc(N)n1nc(C(=O)N(C)Cc3cccc4cccnc34)cc21 [Ex-82, 5-amino-7-methoxy-N-methyl-N-(quinolin-8-ylmethyl)pyrazolo[1,5-c]quinazoline-2-carboxamide] |
| 245 | COc1cccc2c1nc(N)n1nc(C(=O)N3CCC4(CCNC4)CC3)cc21 [Ex-84, (5-amino-7-methoxypyrazolo[1,5-c]quinazolin-2-yl)(2,8-diazaspiro[4.5]decan-8-yl)methanone] |
| 77 | COc1cccc2c1nc(N)n1nc(C(=O)N3CCC4(CCNC4)C3)cc21 (centres unmarked) [Ex-86, (5-amino-7-methoxypyrazolo[1,5-c]quinazolin-2-yl)(2,7-diazaspiro[4.4]nonan-2-yl)methanone] |
| 43 | CCN1CCC2(CCN(C(=O)c3cc4c5cccc(OC)c5nc(N)n4n3)C2)C1 (centres unmarked) [Ex-89, (5-amino-7-methoxypyrazolo[1,5-c]quinazolin-2-yl)(7-ethyl-2,7-diazaspiro[4.4]nonan-2-yl)methanone] |
| 50 | COc1cccc2c1nc(N)n1nc(C(=O)N3CCC4(CCN(Cc5ccccc5)C4)C3)cc21 (centres unmarked) [Ex-90, (5-amino-7-methoxypyrazolo[1,5-c]quinazolin-2-yl)(7-benzyl-2,7-diazaspiro[4.4]nonan-2-yl)methanone] |
| 0.4 | COc1cccc2c1nc(N)n1nc(C(=O)NCc3cccc4cccnc34)cc21 [Ex-91, 5-amino-7-methoxy-N-(quinolin-8-ylmethyl)pyrazolo[1,5-c]quinazoline-2-carboxamide] |
| 101 | COc1cccc2c1nc(N)n1nc(-c3nc(-c4ccccc4)no3)cc21 [Ex-92, 7-methoxy-2-(3-phenyl-1,2,4-oxadiazol-5-yl)pyrazolo[1,5-c]quinazolin-5-amine] |
| 68 | Nc1nc2ccccc2c2cc(Cc3ccnc4ccccc34)nn12 [Ex-95, 2-(quinolin-4-ylmethyl)pyrazolo[1,5-c]quinazolin-5-amine] |
| 53 | Nc1nc2ccccc2c2cc(Cc3ccccc3N3CCOCC3)nn12 [Ex-96, 2-(2-morpholinobenzyl)pyrazolo[1,5c]-quinazolin-5-amine] |
| 33 | COc1cccc2c1nc(N)n1nc(-c3nnc(N4CCN(c5ccccc5)CC4)o3)cc21 [Ex-102, 7-methoxy-2-(5-(4-phenylpiperazin-1-yl)-1,3,4-oxadiazol-2-yl)pyrazolo[1,5-c]quinazolin-5-amine] |
| 67 | Nc1nc2ccc(F)cc2c2cc(Cc3ccccc3)nn12 [Ex-104, 2-benzyl-9-fluoropyrazolo[1,5-c]quinazolin-5-amine] |
| 123 | Nc1nc2ccc(F)cc2c2cc(Cc3cccnc3N3CCOCC3)nn12 [Ex-107, 9-fluoro-2-((2-morpholinopyridin-3-yl)methyl)pyrazolo[1,5-c]quinazolin-5-amine] |
| 14 | Nc1nc2c(F)cccc2c2cc(Cc3ccccc3)nn12 [Ex-108, 2-benzyl-7-fluoropyrazolo[1,5-c]quinazolin-5-amine] |
| 6 | Nc1nc2c(F)cccc2c2cc(Cc3cccc4cccnc34)nn12 [Ex-109, 7-fluoro-2-(quinolin-8-ylmethyl)pyrazolo[1,5-c]quinazolin-5-amine] |
